Data set [1] is described as follows: Test of the release property in soil. In kind it is physicochemical. The settings on record: sand soil, 65 days; rate based on the original amount. As for the experimental part:
7.5 g of the encapsulated insecticide produced in Example 2 was dispersed in 100 mℓ of water, and 1 mℓ of the dispersion was added to 30 g of soil (sand soil of Mt. Kannan) which had been put into a 100-mℓ beaker, and thoroughly mixed therewith.
Separately from this, 1500 mg of the chlorpyrifos was dissolved into 100 mℓ of acetone and 1 mℓ of the solution was added to 30 g of soil (same as above) and thoroughly mixed therewith.
The beaker was covered with aluminium foil, and water was sometimes sprayed on the soil to prevent the soil from drying. 65 days after, the amount of chlorpyrifos in the beaker was measured.
In order to measure the total amount of chlorpyrifos, 150 mℓ of acetone and 2 mℓ of concentrated hydrochloric acid was added to 30 g of the soil. The mixture was refluxed under heating in a water bath at 65°C for 1 hour, and after cooling filtered through No. 5C filter paper. The residue was further washed with 100 mℓ of acetone, and diluted so that the total volume was 250 mℓ to measure the amount of chlorpyrifos by high-speed liquid chromatography.
The amount of chlorpyrifos liberated was measured in the following manner. A mixture solvent of methanol and water (60/40) was added to 30 g of the soil. After the mixture was shaken for 10 minutes, the mixture was filtered through No. 5C filter paper. […]

A short description of a further data set: Acute oral toxicity test. The settings on record: mouse, in vivo, ICR male mice (5 weeks old), read-out: Acute oral toxicity LD₅₀. As for the experimental part: (§1) Tests of the acute oral toxicity and the acute dermal toxicity of the encapsulated insecticide produced in Example 2 and the acute toxicity thereof to fish were carried out as follows.
(§2) A group of 5 ICR male mice (5 weeks old) and a group of 5 Wister male rats (8 weeks old) were used for the acute oral toxicity test and the acute dermal toxicity test, respectively. Tests were carried out to obtain LD₅₀ values in accordance with the toxicity guidance of agricultural chemicals (Agricultural production No. 59 - 4200) (Notification of Director-General, Agricultural Production Bureau, 59 Nohsan No. 4200 dated January 28, 1985) issued by the Agricultural and Fisheries Ministry. The test for acute toxity to fish was carried out using groups of carp, each group consisting of 10 carp, in accordance with the Circular Notice No. 2735 issued by Director of the Agricultural Administration Bureau in the Agricultural and Fisheries Ministry to obtain the TLm of each group.

The next data set relates to carp. Put plainly: Acute toxicity to fish. In kind it is in vivo. As for the experimental part:
as §1, §2

A short description of data set [2]: Acute dermal toxicity test. The settings on record: Wistar, rat, in vivo, topical or ocular, Wister male rats (8 weeks old), read-out: Acute dermal toxicity LD₅₀. As for the experimental part:
as §1, §2

`CCOP(=S)(OCC)Oc1nc(Cl)c(Cl)cc1Cl` [Technical, 0,0-diethyl-0-3,5,6-trichloro-2-pyridyl-phosphorothioate]: the “Amount of chlorpyrifos remaining in the soil: Total amount of chlorpyrifos” value in data set [1] stood at 41 wt%. Moreover, the figures for the LD50 (in “Acute oral toxicity test”; in data set [2]) were 178 mg/kg and 202 mg/kg, respectively. In the data set on carp, the “Toxicity to fish TLm (48 h)” value was found to be 0.13 ppm.

The values are drawn from patent publication EP0368576B1, “Insecticide comprising a suspension of microcapsules containing chlorpyrifos” (priority 1988, dated 1990).
